# Reference: ChEMBL document CHEMBL1909635, “Selectivity of 3'-O-methylponkoranol for inhibition of N- and C-terminal maltase glucoamylase and sucrase isomaltase, potential therapeutics for digestive disorders or their sequelae” (Bioorg Med Chem Lett, 2011)
# Legend:
# [1] = biological target: T1, Sucrase-isomaltase, intestinal (Homo sapiens, UniProt P14410); assay: Inhibition of human recombinant N-terminal Sucrase-isomaltase by Lineweaver-Burk plot analysis
# [2] = Inhibition of human recombinant C-terminal subunit of maltase-glucoamylase-N20 by Lineweaver-Burk plot analysis
# [3] = biological target: T1, Sucrase-isomaltase, intestinal; assay: Inhibition of human recombinant C-terminal Sucrase-isomaltase by Lineweaver-Burk plot analysis
# [4] = Inhibition of human recombinant C-terminal subunit of maltase-glucoamylase-N2 by Lineweaver-Burk plot analysis
# [5] = species: Homo sapiens; assay: Selectivity ratio of Ki for human recombinant N-terminal maltase-glucoamylase to Ki for human recombinant C-terminal subunit of maltase-glucoamylase-N20
# [6] = species: Homo sapiens; assay: Selectivity ratio of Ki for human recombinant N-terminal Sucrase-isomaltase to Ki for human recombinant C-terminal Sucrase-isomaltase
# [7] = species: Homo sapiens; assay: Selectivity ratio of Ki for human recombinant N-terminal maltase-glucoamylase to Ki for human recombinant C-terminal Sucrase-isomaltase
# [8] = species: Homo sapiens; assay: Selectivity ratio of Ki for human recombinant N-terminal maltase-glucoamylase to Ki for human recombinant C-terminal subunit of maltase-glucoamylase-N2
# T1 sequence (P14410 2-1007 limits assumed): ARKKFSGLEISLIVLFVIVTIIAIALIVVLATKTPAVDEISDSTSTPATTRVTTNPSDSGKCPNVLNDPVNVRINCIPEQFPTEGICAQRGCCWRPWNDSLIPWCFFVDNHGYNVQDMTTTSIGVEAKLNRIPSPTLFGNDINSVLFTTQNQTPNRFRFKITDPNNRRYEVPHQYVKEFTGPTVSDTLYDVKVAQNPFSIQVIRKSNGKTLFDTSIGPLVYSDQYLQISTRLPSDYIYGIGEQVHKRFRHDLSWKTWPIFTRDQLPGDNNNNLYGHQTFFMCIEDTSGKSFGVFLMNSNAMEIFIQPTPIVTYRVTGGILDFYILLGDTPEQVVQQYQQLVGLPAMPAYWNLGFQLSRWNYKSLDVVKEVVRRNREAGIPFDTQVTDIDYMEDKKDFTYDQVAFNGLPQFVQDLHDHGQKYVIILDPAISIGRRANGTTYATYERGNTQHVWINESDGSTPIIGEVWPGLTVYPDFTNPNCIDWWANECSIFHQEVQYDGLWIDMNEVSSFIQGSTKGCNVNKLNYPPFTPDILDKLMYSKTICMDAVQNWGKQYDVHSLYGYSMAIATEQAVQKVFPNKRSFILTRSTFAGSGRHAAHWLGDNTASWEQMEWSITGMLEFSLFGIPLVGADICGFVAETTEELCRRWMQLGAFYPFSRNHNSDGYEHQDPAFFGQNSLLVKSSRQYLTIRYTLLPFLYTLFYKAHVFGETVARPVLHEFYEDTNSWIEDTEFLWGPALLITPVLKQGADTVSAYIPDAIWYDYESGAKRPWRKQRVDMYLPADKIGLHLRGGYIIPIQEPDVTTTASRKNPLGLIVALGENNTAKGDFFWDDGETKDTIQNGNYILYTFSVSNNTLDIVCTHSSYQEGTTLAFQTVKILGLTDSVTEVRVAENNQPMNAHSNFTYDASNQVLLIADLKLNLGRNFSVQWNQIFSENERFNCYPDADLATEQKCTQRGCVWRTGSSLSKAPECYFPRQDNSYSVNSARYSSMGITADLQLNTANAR
# T1 sequence (P14410 1008-1827 limits assumed): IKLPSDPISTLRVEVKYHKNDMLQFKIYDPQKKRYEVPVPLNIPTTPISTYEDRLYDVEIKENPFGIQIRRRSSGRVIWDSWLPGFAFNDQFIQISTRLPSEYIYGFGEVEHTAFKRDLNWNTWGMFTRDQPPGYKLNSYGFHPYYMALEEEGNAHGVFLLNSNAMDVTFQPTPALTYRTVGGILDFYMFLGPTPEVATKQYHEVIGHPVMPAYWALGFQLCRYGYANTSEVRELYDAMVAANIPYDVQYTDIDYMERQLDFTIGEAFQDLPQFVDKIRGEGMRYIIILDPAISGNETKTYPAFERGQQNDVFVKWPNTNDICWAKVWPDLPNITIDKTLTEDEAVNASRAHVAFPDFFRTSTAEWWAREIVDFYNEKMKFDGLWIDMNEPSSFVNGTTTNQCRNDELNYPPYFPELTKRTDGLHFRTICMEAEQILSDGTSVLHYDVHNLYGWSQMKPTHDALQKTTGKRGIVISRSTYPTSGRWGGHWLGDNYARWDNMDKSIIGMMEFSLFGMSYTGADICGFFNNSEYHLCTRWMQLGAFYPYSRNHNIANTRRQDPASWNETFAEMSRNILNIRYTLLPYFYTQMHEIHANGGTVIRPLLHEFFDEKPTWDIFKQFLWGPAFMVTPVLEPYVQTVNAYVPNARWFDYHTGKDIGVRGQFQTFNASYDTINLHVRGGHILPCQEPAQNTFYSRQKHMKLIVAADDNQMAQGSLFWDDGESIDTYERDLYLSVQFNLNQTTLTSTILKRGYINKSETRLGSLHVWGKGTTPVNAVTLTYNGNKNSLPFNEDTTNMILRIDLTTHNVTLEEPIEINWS
Ki [1] [nM],Ki [2] [nM],Ki [3] [nM],Ki [4],Ratio Ki [5],Ratio Ki [6],Ratio Ki [7],Ratio Ki [8],Ki ([4]; read-out: Ki) [nM],Compound
302,96,103,Not Active,,,,,,OC[C@@H]1[C@@H](O)[C@H](O)C[S@@+]1C[C@@H](O)[C@@H](O)[C@H](O)[C@@H](O)CO.[Cl-] [NEOPONKORANOL]
35,55,7,,10,5,70,10,60,CO[C@@H]([C@H](O)[C@@H](O)CO)[C@H](O)C[S@+]1C[C@@H](O)[C@H](O)[C@H]1CO
